Experimental data published in the supplement of paper PMC10307832.

Columns and labels:
Assay in all cases: relative viability (nuclei count vs DMSO), 5 days (fraction); higher = more cells survive
[1] = system: RERF-LC-KJ
Outline: (§1)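 Cells from lung cancer lines were seeded into 1536-well plates and, one day later, dosed by pin tool. Treatments were either a single drug or a fixed dose of an anchor drug with five library-drug doses (not always all listed) in √10 steps. After 5 days, nuclei were stained in a one-step fixation (final 0.05% Triton X-100, 1% formaldehyde, 1 ug/ml Hoechst) and counted on 4× images, and relative viability is the treated-to-vehicle nuclei ratio, as the median of duplicate plates.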

[2] = system: NCI-H23
Outline: as §1

[3] = system: LOU-NH91
Outline: as §1

[4] = system: NCI-H1666
Outline: as §1

[5] = system: NCI-H460
Outline: as §1

[6] = system: NCI-H1355
Outline: as §1

[7] = system: EKVX
Outline: as §1

[8] = system: NCI-H650
Outline: as §1

[9] = system: NCI-H838
Outline: as §1

[10] = system: NCI-H1650
Outline: as §1

[11] = system: LU99A
Outline: as §1

[12] = system: NCI-H1993
Outline: as §1

[13] = system: BEN
Outline: as §1

[14] = system: A-427
Outline: as §1

[15] = system: SW 1573
Outline: as §1

[16] = system: LC-2-ad
Outline: as §1

[17] = system: NCI-H1915
Outline: as §1

[18] = system: NCI-H1793
Outline: as §1

[19] = system: NCI-H520
Outline: as §1

[20] = system: LCLC-97TM1
Outline: as §1

[21] = system: NCI-H2228
Outline: as §1

[22] = system: PC-3 [JPC-3]
Outline: as §1

[23] = system: NCI-H2347
Outline: as §1

Cc1cnc(-c2cnc(NCCNc3ccc(C#N)cn3)nc2-c2ccc(Cl)cc2Cl)[nH]1 + CCNC(=O)c1noc(-c2cc(C(C)C)c(O)cc2O)c1-c1ccc(CN2CCOCC2)cc1 [Luminespib] (partner 0.01 µM)
relative viability ([1]; first compound 0.08 µM): 1.23
relative viability ([1]; first compound 0.253 µM): 1.12
relative viability ([1]; first compound 0.8 µM): 1.27
relative viability ([1]; first compound 2.53 µM): 1.32
relative viability ([2]; first compound 0.08 µM): 0.22
relative viability ([2]; first compound 0.253 µM): 0.218
relative viability ([2]; first compound 0.8 µM): 0.216
relative viability ([2]; first compound 2.53 µM): 0.209
relative viability ([3]; first compound 0.08 µM): 0.367
relative viability ([3]; first compound 0.253 µM): 0.369
relative viability ([3]; first compound 0.8 µM): 0.322
relative viability ([3]; first compound 2.53 µM): 0.376
relative viability ([4]; first compound 0.08 µM): 1.04
relative viability ([4]; first compound 0.253 µM): 1.04
relative viability ([4]; first compound 0.8 µM): 1.04
relative viability ([4]; first compound 2.53 µM): 1.08
relative viability ([5]; first compound 0.08 µM): 0.0473
relative viability ([5]; first compound 0.253 µM): 0.0403
relative viability ([5]; first compound 0.8 µM): 0.0345
relative viability ([5]; first compound 2.53 µM): 0.0279
relative viability ([6]; first compound 0.08 µM): 0.704
relative viability ([6]; first compound 0.253 µM): 0.698
relative viability ([6]; first compound 0.8 µM): 0.677
relative viability ([6]; first compound 2.53 µM): 0.744
relative viability ([7]; first compound 0.08 µM): 0.85
relative viability ([7]; first compound 0.253 µM): 0.824
relative viability ([7]; first compound 0.8 µM): 0.911
relative viability ([7]; first compound 2.53 µM): 0.88
relative viability ([8]; first compound 0.08 µM): 0.806
relative viability ([8]; first compound 0.253 µM): 0.768
relative viability ([8]; first compound 0.8 µM): 0.758
relative viability ([8]; first compound 2.53 µM): 0.76
relative viability ([9]; first compound 0.08 µM): 0.326
relative viability ([9]; first compound 0.253 µM): 0.287
relative viability ([9]; first compound 0.8 µM): 0.333
relative viability ([9]; first compound 2.53 µM): 0.301
relative viability ([10]; first compound 0.08 µM): 0.195
relative viability ([10]; first compound 0.253 µM): 0.207
relative viability ([10]; first compound 0.8 µM): 0.164
relative viability ([10]; first compound 2.53 µM): 0.193
relative viability ([11]; first compound 0.08 µM): 0.243
relative viability ([11]; first compound 0.253 µM): 0.382
relative viability ([11]; first compound 0.8 µM): 0.261
relative viability ([11]; first compound 2.53 µM): 0.234
relative viability ([12]; first compound 0.08 µM): 0.934
relative viability ([12]; first compound 0.253 µM): 0.932
relative viability ([12]; first compound 0.8 µM): 0.598
relative viability ([12]; first compound 2.53 µM): 1.27
relative viability ([13]; first compound 0.08 µM): 0.338
relative viability ([13]; first compound 0.253 µM): 0.612
relative viability ([13]; first compound 0.8 µM): 0.702
relative viability ([13]; first compound 2.53 µM): 0.501
relative viability ([14]; first compound 0.08 µM): 0.954
relative viability ([14]; first compound 0.253 µM): 0.828
relative viability ([14]; first compound 0.8 µM): 0.814
relative viability ([14]; first compound 2.53 µM): 0.916
relative viability ([15]; first compound 0.08 µM): 0.162
relative viability ([15]; first compound 0.253 µM): 0.277
relative viability ([15]; first compound 0.8 µM): 0.344
relative viability ([15]; first compound 2.53 µM): 0.234
relative viability ([16]; first compound 0.08 µM): 0.956
relative viability ([16]; first compound 0.253 µM): 0.683
relative viability ([16]; first compound 2.53 µM): 0.963
relative viability ([17]; first compound 0.08 µM): 0.808
relative viability ([17]; first compound 0.253 µM): 0.587
relative viability ([17]; first compound 0.8 µM): 0.753
relative viability ([17]; first compound 2.53 µM): 0.779
relative viability ([18]; first compound 0.08 µM): 0.18
relative viability ([18]; first compound 0.253 µM): 0.173
relative viability ([18]; first compound 0.8 µM): 0.147
relative viability ([18]; first compound 2.53 µM): 0.201
relative viability ([19]; first compound 0.08 µM): 0.257
relative viability ([19]; first compound 0.253 µM): 0.203
relative viability ([19]; first compound 0.8 µM): 0.227
relative viability ([19]; first compound 2.53 µM): 0.208
relative viability ([20]; first compound 0.08 µM): 0.748
relative viability ([20]; first compound 0.8 µM): 0.959
relative viability ([20]; first compound 2.53 µM): 0.787
relative viability ([21]; first compound 0.08 µM): 0.131
relative viability ([21]; first compound 0.253 µM): 0.156
relative viability ([21]; first compound 0.8 µM): 0.133
relative viability ([21]; first compound 2.53 µM): 0.159
relative viability ([22]; first compound 0.08 µM): 0.795
relative viability ([22]; first compound 0.253 µM): 0.706
relative viability ([22]; first compound 0.8 µM): 0.675
relative viability ([22]; first compound 2.53 µM): 0.661
relative viability ([23]; first compound 0.08 µM): 0.267
relative viability ([23]; first compound 0.253 µM): 0.266
relative viability ([23]; first compound 0.8 µM): 0.346
relative viability ([23]; first compound 2.53 µM): 0.518

Cc1cnc(-c2cnc(NCCNc3ccc(C#N)cn3)nc2-c2ccc(Cl)cc2Cl)[nH]1 + COc1cc2c(Oc3ccc(NC(=O)C4(C(=O)Nc5ccc(F)cc5)CC4)cc3F)ccnc2cc1OCCCN1CCOCC1 [Foretinib] (partner 0.25 µM)
relative viability ([1]; first compound 0.08 µM): 0.906
relative viability ([1]; first compound 0.253 µM): 0.796
relative viability ([1]; first compound 0.8 µM): 0.826
relative viability ([1]; first compound 2.53 µM): 0.832
relative viability ([2]; first compound 0.08 µM): 0.938
relative viability ([2]; first compound 0.253 µM): 1
relative viability ([2]; first compound 0.8 µM): 0.983
relative viability ([2]; first compound 2.53 µM): 1
relative viability ([3]; first compound 0.08 µM): 0.975
relative viability ([3]; first compound 0.253 µM): 0.901
relative viability ([3]; first compound 0.8 µM): 0.96
relative viability ([3]; first compound 2.53 µM): 0.942
relative viability ([4]; first compound 0.08 µM): 0.934
relative viability ([4]; first compound 0.253 µM): 0.906
relative viability ([4]; first compound 0.8 µM): 0.995
relative viability ([4]; first compound 2.53 µM): 0.924
relative viability ([5]; first compound 0.08 µM): 1.1
relative viability ([5]; first compound 0.253 µM): 0.947
relative viability ([5]; first compound 0.8 µM): 0.981
relative viability ([5]; first compound 2.53 µM): 0.885
relative viability ([6]; first compound 0.08 µM): 0.901
relative viability ([6]; first compound 0.253 µM): 0.867
relative viability ([6]; first compound 0.8 µM): 0.97
relative viability ([6]; first compound 2.53 µM): 0.96
relative viability ([7]; first compound 0.08 µM): 0.588
relative viability ([7]; first compound 0.253 µM): 0.555
relative viability ([7]; first compound 0.8 µM): 0.626
relative viability ([7]; first compound 2.53 µM): 0.727
relative viability ([8]; first compound 0.08 µM): 1.07
relative viability ([8]; first compound 0.253 µM): 0.994
relative viability ([8]; first compound 0.8 µM): 1.09
relative viability ([8]; first compound 2.53 µM): 1.03
relative viability ([9]; first compound 0.08 µM): 1.04
relative viability ([9]; first compound 0.253 µM): 1.02
relative viability ([9]; first compound 0.8 µM): 1.15
relative viability ([9]; first compound 2.53 µM): 1.21
relative viability ([10]; first compound 0.08 µM): 1.37
relative viability ([10]; first compound 0.253 µM): 1.22
relative viability ([10]; first compound 0.8 µM): 1.25
relative viability ([10]; first compound 2.53 µM): 1.01
relative viability ([11]; first compound 0.08 µM): 0.908
relative viability ([11]; first compound 0.253 µM): 0.701
relative viability ([11]; first compound 0.8 µM): 0.83
relative viability ([11]; first compound 2.53 µM): 0.765
relative viability ([12]; first compound 0.08 µM): 0.902
relative viability ([12]; first compound 0.253 µM): 0.652
relative viability ([12]; first compound 0.8 µM): 0.754
relative viability ([12]; first compound 2.53 µM): 0.889
relative viability ([13]; first compound 0.08 µM): 0.857
relative viability ([13]; first compound 0.253 µM): 0.68
relative viability ([13]; first compound 0.8 µM): 0.746
relative viability ([13]; first compound 2.53 µM): 0.69
relative viability ([14]; first compound 0.08 µM): 1.13
relative viability ([14]; first compound 0.253 µM): 1.01
relative viability ([14]; first compound 0.8 µM): 0.861
relative viability ([14]; first compound 2.53 µM): 1.07
relative viability ([15]; first compound 0.08 µM): 0.929
relative viability ([15]; first compound 0.253 µM): 0.87
relative viability ([15]; first compound 0.8 µM): 0.907
relative viability ([15]; first compound 2.53 µM): 0.769
relative viability ([16]; first compound 0.08 µM): 0.996
relative viability ([16]; first compound 0.253 µM): 0.711
relative viability ([16]; first compound 2.53 µM): 1.03
relative viability ([17]; first compound 0.08 µM): 1.11
relative viability ([17]; first compound 0.253 µM): 0.844
relative viability ([17]; first compound 0.8 µM): 1.1
relative viability ([17]; first compound 2.53 µM): 1.07
relative viability ([18]; first compound 0.08 µM): 0.807
relative viability ([18]; first compound 0.253 µM): 0.545
relative viability ([18]; first compound 0.8 µM): 0.684
relative viability ([18]; first compound 2.53 µM): 0.723
relative viability ([19]; first compound 0.08 µM): 0.71
relative viability ([19]; first compound 0.253 µM): 0.593
relative viability ([19]; first compound 0.8 µM): 0.918
relative viability ([19]; first compound 2.53 µM): 1.04
relative viability ([20]; first compound 0.08 µM): 0.917
relative viability ([20]; first compound 0.8 µM): 0.878
relative viability ([20]; first compound 2.53 µM): 0.86
relative viability ([21]; first compound 0.08 µM): 0.954
relative viability ([21]; first compound 0.253 µM): 0.761
relative viability ([21]; first compound 0.8 µM): 0.898
relative viability ([21]; first compound 2.53 µM): 0.589
relative viability ([22]; first compound 0.08 µM): 0.978
relative viability ([22]; first compound 0.253 µM): 0.926
relative viability ([22]; first compound 0.8 µM): 1.03
relative viability ([22]; first compound 2.53 µM): 1.03
relative viability ([23]; first compound 0.08 µM): 0.963
relative viability ([23]; first compound 0.253 µM): 1.11
relative viability ([23]; first compound 0.8 µM): 0.877
relative viability ([23]; first compound 2.53 µM): 0.841
